The text below walks through data of patent US20150209364A1, “METHOD FOR TREATING EPIDERMOID CARCINOMA” (Johnpro Biotech Inc., priority 2011, published 2015).

A word on the IC50: it is the midpoint of a concentration-inhibition curve.

This experiment has as its system erlotinib-resistant H1975 cells. Briefly: cells. The format is cell-based. Particulars: Homo sapiens, NCI-H1975, 72 h, read-out: IC50 (cell viability). How it is done: The cells were plated at 5×10^4/ml in 100 μL of culture medium in a 96-well microtiter plate, followed by incubation with drugs. Cell viability after the treatment was determined using 3-(4,5-dimethylthiazol-2-yl)-5(3-carboxymethoxy-phenyl)-2-(4-sulfophenyl)-2H-tetrazolium (MTS) assay (Promega, Madison, Wis.) per the manufacturer's instruction. Absorbance was measured at 490 nm for MTS assay with an enzyme-linked immunosorbent assay plate reader from MTX Lab Systems, Inc. (Vienna, Va.). […] Each experiment was performed in triplicate, and the results were expressed as mean±SD.

`CCN(CC)CCCC(C)Nc1ccnc2cc(Cl)ccc12` (stereo not shown) [chloroquine]: the IC50 was determined as 75 µM.
